Reference: patent US20250163002A1, “FUSED QUINONOXIME IMIDAZOLE, ONIUM DERIVATIVES THEREOF, PREPARATION AND USE THEREOF” (SHANGHAI JIAO TONG UNIVERSITY, priority 2022, published 2025)
Counter-ions that a name gives are not always drawn.

Experiments:
Format in all cases: cell-based
Settings in all cases: 24 h or 48 h after addition, unit inferred
L929 = assay: In vitro cell proliferation inhibition test (MTT), L929
MCF-7 = assay: In vitro inhibition test for cancer cell proliferation (MTT), MCF-7
A549 = assay: In vitro inhibition test for cancer cell proliferation (MTT), A549
HeLa = assay: In vitro inhibition test for cancer cell proliferation (MTT), HeLa

C[n+]1cn(Cc2ccccc2F)c2c1/C(=N/O)c1ccccc1C2=O [Compound 112, (E)-1-(2-fluorobenzyl)-4-(hydroxylimino)-3-methyl-9-oxo-4,9-dihydro-1H-naphthol[2,3-d]imidazole-3-iodide]
IC50 (L929): 27.3 µM
IC50 (MCF-7): 3.7 µM
IC50 (A549): 0.57 µM
IC50 (HeLa): 7.7 µM

C[n+]1cn(Cc2cccc(F)c2)c2c1/C(=N/O)c1ccccc1C2=O [Compound 113, (E)-1-(3-fluorobenzyl)-4-(hydroxylimino)-3-methyl-9-oxo-4,9-dihydro-1H-naphthol[2,3-d]imidazole-3-iodide]
IC50 (L929): 73.4 µM
IC50 (MCF-7): 10 µM
IC50 (A549): 0.57 µM
IC50 (HeLa): 7.1 µM

COc1ccc(-n2c[n+](C)c3c2C(=O)c2ccccc2/C3=N\O)cc1 [Compound 114, (E)-4-(hydroxylimino)-1-(4-methoxyphenyl)-3-methyl-9-oxo-4,9-dihydro-1H-naphthol[2,3-d]imidazole-3-iodide]
IC50 (L929): > 100 µM
IC50 (MCF-7): 33 µM
IC50 (A549): 2.42 µM
IC50 (HeLa): 33.8 µM

COc1ccc(Cn2c[n+](C)c3c2C(=O)c2ccccc2/C3=N\O)cc1 [Compound 115, (E)-4-(hydroxylimino)-1-(4-methoxybenzyl)-3-methyl-9-oxo-4,9-dihydro-1H-naphthol[2,3-d]imidazole-3-iodide]
IC50 (L929): 17.6 µM
IC50 (MCF-7): 1.64 µM
IC50 (A549): 0.13 µM
IC50 (HeLa): 2.5 µM

C[n+]1cn(-c2ccc(F)c(Cl)c2)c2c1/C(=N/O)c1ccccc1C2=O [Compound 116, (E)-1-(3-chloro-4-fluorophenyl)-4-(hydroxylimino)-3-methyl-9-oxo-4,9-dihydro-1H-naphthol[2,3-d]imidazole-3-iodide]
IC50 (L929): > 100 µM
IC50 (MCF-7): > 100 µM
IC50 (A549): 2.3 µM
IC50 (HeLa): > 100 µM

C[n+]1cn(-c2ccc(F)c(Br)c2)c2c1/C(=N/O)c1ccccc1C2=O [Compound 117, (E)-1-(3-bromo-4-fluorophenyl)-4-(hydroxylimino)-3-methyl-9-oxo-4,9-dihydro-1H-naphthol[2,3-d]imidazole-3-iodide]
IC50 (L929): > 100 µM
IC50 (MCF-7): 67.7 µM
IC50 (A549): 5.2 µM
IC50 (HeLa): 87.8 µM

Cn1c[n+](C)c2c1C(=O)c1cccc([N+](=O)[O-])c1/C2=N\O [Compound 118, (E)-4-(hydroxylimino)-1,3-dimethyl-5-nitro-9-oxo-4,9-dihydro-1H-naphthol[2,3-d]imidazole-3-iodide]
IC50 (L929): 12.9 µM
IC50 (MCF-7): 0.89 µM
IC50 (A549): 0.54 µM
IC50 (HeLa): 0.78 µM

CCCCn1c[n+](C)c2c1C(=O)c1ccccc1C2=NOC [Compound 119, (E) and (Z)-1-butyl-4-(methoxylimino)-3-methyl-9-oxo-4,9-dihydro-1H-naphthol[2,3-d]imidazole-3-iodide]
IC50 (L929): 4.6 µM
IC50 (MCF-7): 18.1 µM
IC50 (A549): 0.52 µM
IC50 (HeLa): 33 µM

CCCCn1c[n+](C)c2c1C(=O)c1ccccc1C2=NOCC [Compound 120, (E) and (Z)-1-butyl-4-(ethoxylimino)-3-methyl-9-oxo-4,9-dihydro-1H-naphthol[2,3-d]imidazole-3-iodide]
IC50 (L929): > 100 µM
IC50 (MCF-7): 13 µM
IC50 (A549): 0.69 µM
IC50 (HeLa): 26 µM

CCCCn1c[n+](C)c2c1C(=O)c1ccccc1C2=NOCc1ccccc1 [Compound 121, (E) and (Z)-4-((benzyloxy)imino)-1-butyl-3-methyl-9-oxo-4,9-dihydro-1H-naphthol[2,3-d]imidazole-3-iodide]
IC50 (L929): 61 µM
IC50 (MCF-7): 6.8 µM
IC50 (A549): 0.09 µM
IC50 (HeLa): 28 µM

CCCCn1c[n+](CC)c2c1C(=O)c1ccccc1C2=NOC [Compound 122, (E) and (Z)-1-butyl-3-ethyl-4-(methoxylimino)-9-oxo-4,9-dihydro-1H-naphthol[2,3-d]imidazole-3-iodide]
IC50 (L929): > 100 µM
IC50 (MCF-7): 33 µM
IC50 (A549): 1.8 µM
IC50 (HeLa): 52 µM

CC[n+]1cn(C)c2c1C(=NOC)c1ccccc1C2=O [Compound 126, (E) and (Z)-3-ethyl-4-(methoxylimino)-1-methyl-9-oxo-4,9-dihydro-1H-naphthol[2,3-d]imidazole-3-iodide]
IC50 (L929): 85.2 µM
IC50 (MCF-7): 12.2 µM
IC50 (A549): 0.59 µM
IC50 (HeLa): 39 µM

CC(C)CON=C1c2ccccc2C(=O)c2c1[n+](C)cn2C [Compound 129, (E) and (Z)-4-(isobutoxyimino)-1,3-dimethyl-9-oxo-4,9-dihydro-1H-naphthol[2,3-d]imidazole-3-iodide]
IC50 (L929): 26.4 µM
IC50 (MCF-7): 12.1 µM
IC50 (A549): 0.07 µM
IC50 (HeLa): 8.7 µM

Cn1c[n+](C)c2c1C(=O)c1ccccc1C2=NOC(C)(C)C [Compound 130, (E) and (Z)-4-(tert-butoxyimino)-1,3-dimethyl-9-oxo-4,9-dihydro-1H-naphthol[2,3-d]imidazole-3-iodide]
IC50 (L929): > 100 µM
IC50 (MCF-7): 56.2 µM
IC50 (A549): 0.6 µM
IC50 (HeLa): 48.4 µM

Cn1c[n+](C)c2c1C(=O)c1ccccc1C2=NOCC1CC1 [Compound 131, (E) and (Z)-4-((cyclopropylmethoxy)imino)-1,3-dimethyl-9-oxo-4,9-dihydro-1H-naphthol[2,3-d]imidazole-3-iodide]
IC50 (L929): 24.7 µM
IC50 (MCF-7): 9.9 µM
IC50 (A549): 0.07 µM
IC50 (HeLa): 21 µM

C=CCON=C1c2ccccc2C(=O)c2c1[n+](C)cn2C [Compound 132, (E) and (Z)-4-((allyloxy)imino)-1,3-dimethyl-9-oxo-4,9-dihydro-1H-naphthol[2,3-d]imidazole-3-iodide]
IC50 (L929): 2.4 µM
IC50 (MCF-7): 56.1 µM
IC50 (A549): 0.06 µM
IC50 (HeLa): 46.3 µM

COc1ccc(CON=C2c3ccccc3C(=O)c3c2[n+](C)cn3C)cc1 [Compound 133, (E) and (Z)-4-(((4-methoxybenzyl)oxy)imino)-1,3-dimethyl-9-oxo-4,9-dihydro-1H-naphthol[2,3-d]imidazole-3-iodide]
IC50 (L929): 16 µM
IC50 (MCF-7): 17.9 µM
IC50 (A549): 0.08 µM
IC50 (HeLa): 23.9 µM

Cn1c[n+](C)c2c1C(=O)c1ccccc1C2=NOCc1ccc(Cl)cc1 [Compound 134, (E) and (Z)-4-(((4-chlorobenzyl)oxy)imino)-1,3-dimethyl-9-oxo-4,9-dihydro-1H-naphthol[2,3-d]imidazole-3-iodide]
IC50 (L929): 4.9 µM
IC50 (MCF-7): 25.6 µM
IC50 (A549): 0.07 µM
IC50 (HeLa): 17.5 µM

Cn1c[n+](C)c2c1C(=O)c1ccccc1C2=NOCc1ccc(C(F)(F)F)cc1 [Compound 135, (E) and (Z)-1,3-dimethyl-9-oxo-4-(((4-(trifluoromethyl)benzyl)oxy)imino)-4,9-dihydro-1H-naphthol[2,3-d]imidazole-3-iodide]
IC50 (L929): 4.03 µM
IC50 (MCF-7): 34.9 µM
IC50 (A549): 0.16 µM
IC50 (HeLa): 45.4 µM

Cn1c[n+](C)c2c1C(=O)c1ccccc1C2=NOCc1ccc(F)cc1 [Compound 136, (E) and (Z)-4-(((4-fluorobenzyl)oxy)imino)-1,3-dimethyl-9-oxo-4,9-dihydro-1H-naphthol[2,3-d]imidazole-3-iodide]
IC50 (L929): 4.4 µM
IC50 (MCF-7): 29.8 µM
IC50 (A549): 0.06 µM
IC50 (HeLa): 23.9 µM

Cn1c[n+](C)c2c1C(=O)c1ccccc1C2=NOCc1c(F)c(F)c(F)c(F)c1F [Compound 137, (E) and (Z)-1,3-dimethyl-9-oxo-4-(((perfluorophenyl)methoxy)imino)-4,9-dihydro-1H-naphthol[2,3-d]imidazole-3-iodide]
IC50 (L929): 9.7 µM
IC50 (MCF-7): 24.8 µM
IC50 (A549): 0.05 µM
IC50 (HeLa): 15.4 µM

Cn1c[n+](C)c2c1C(=O)c1ccccc1C2=NOCc1ccccc1 [Compound 138, (E) and (Z)-4-((benzyloxy)imino)-1,3-dimethyl-9-oxo-4,9-dihydro-1H-naphthol[2,3-d]imidazole-3-iodide]
IC50 (L929): 25.9 µM
IC50 (MCF-7): 5.9 µM
IC50 (A549): 0.004 µM
IC50 (HeLa): 4.2 µM

Cn1c[n+](C)c2c1C(=O)c1ccccc1C2=NOCc1ccccc1 [Compound 139, (E) and (Z)-4-((benzyloxy)imino)-1,3-dimethyl-9-oxo-4,9-dihydro-1H-naphthol[2,3-d]imidazole-3-p-toluenesulfonamide]
IC50 (L929): 19.9 µM
IC50 (MCF-7): 8.6 µM
IC50 (A549): 0.005 µM
IC50 (HeLa): 6.8 µM

Cn1c[n+](C)c2c1C(=O)c1ccccc1C2=NOCc1ccccc1 [Compound 140, (E) and (Z)-4-((benzyloxy)imino)-1,3-dimethyl-9-oxo-4,9-dihydro-1H-naphthol[2,3-d]imidazole-3-dimethyl sulfate]
IC50 (L929): 34.5 µM
IC50 (MCF-7): 10.9 µM
IC50 (A549): 0.007 µM
IC50 (HeLa): 9.8 µM

Cn1c[n+](C)c2c1C(=O)c1ccccc1C2=NOCc1ccc([N+](=O)[O-])cc1 [Compound 141, (E) and (Z)-1,3-dimethyl-4-(((4-nitrobenzyl)oxy)imino)-9-oxo-4,9-dihydro-1H-naphthol[2,3-d]imidazole-3-iodide]
IC50 (L929): 23.4 µM
IC50 (MCF-7): 45.6 µM
IC50 (A549): 0.05 µM
IC50 (HeLa): 23.9 µM

Cn1c[n+](C)c2c1C(=O)c1ccccc1C2=NOc1ccccc1 [Compound 142, (E) and (Z)-4-((phenoxy)imino)-1,3-dimethyl-9-oxo-4,9-dihydro-1H-naphthol[2,3-d]imidazole-3-iodide]
IC50 (L929): 61.3 µM
IC50 (MCF-7): 43.5 µM
IC50 (A549): 0.06 µM
IC50 (HeLa): 34 µM

Cn1c[n+](C)c2c1C(=O)c1ccccc1/C2=N\OCC1OCCO1 [Compound 143, (E)-4-(((1,3-dioxoheterocycle-2-yl)methoxy)imino)-1,3-dimethyl-9-oxo-4,9-dihydro-1H-naphthol[2,3-d]imidazole-3-iodide]
IC50 (L929): 34.8 µM
IC50 (MCF-7): 34.9 µM
IC50 (A549): 0.03 µM
IC50 (HeLa): 25.8 µM

COCCO/N=C1\c2ccccc2C(=O)c2c1[n+](C)cn2C [Compound 144, (E)-4-((2-methoxyethoxy)imino)-1,3-dimethyl-9-oxo-4,9-dihydro-1H-naphthol[2,3-d]imidazole-3-iodide]
IC50 (L929): 46.6 µM
IC50 (MCF-7): 33 µM
IC50 (A549): 0.06 µM
IC50 (HeLa): 23.3 µM
